Drawing on patent EP4631938A1, “NITROGEN-CONTAINING HETEROCYCLE WITH SEROTONIN RECEPTOR-BINDING ACTIVITY AND CARBOCYCLIC DERIVATIVE” (Shionogi & Co., Ltd, priority 2022, dated 2024), this text covers Ki for seven compounds.

For assay [1], the target named is T1, human recombinant 5-HT2A receptor (Homo sapiens, UniProt P28223).
T1 construct: expressed in transfected cells; host or cells: Jump-In HEK cells (membrane preparation)
Nature of the assay: Test Example 1-2: 5-HT2A receptor binding inhibition test ([3H]-Ketanserin; non-specific ligand Ketanserin). The method, boiled down:
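Ki values were derived from dose-response inhibition of [3H]-ketanserin binding; nonspecific binding was set with 500 µmol/L ketanserin, and Kd was set for each membrane lot from Scatchard saturation plots. Incubation lasted 1.5 h at room temperature (25 °C). Bound radioligand was harvested on Tris-HCl (pH 7.4)-presoaked filters and counted.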

Assay [2] concerns the target T2, human recombinant 5-HT2C receptor (Homo sapiens, UniProt P28335).
T2 construct: expressed in transfected cells; host or cells: Jump-In HEK cells (membrane preparation)
T2 sequence (P28335 33-458): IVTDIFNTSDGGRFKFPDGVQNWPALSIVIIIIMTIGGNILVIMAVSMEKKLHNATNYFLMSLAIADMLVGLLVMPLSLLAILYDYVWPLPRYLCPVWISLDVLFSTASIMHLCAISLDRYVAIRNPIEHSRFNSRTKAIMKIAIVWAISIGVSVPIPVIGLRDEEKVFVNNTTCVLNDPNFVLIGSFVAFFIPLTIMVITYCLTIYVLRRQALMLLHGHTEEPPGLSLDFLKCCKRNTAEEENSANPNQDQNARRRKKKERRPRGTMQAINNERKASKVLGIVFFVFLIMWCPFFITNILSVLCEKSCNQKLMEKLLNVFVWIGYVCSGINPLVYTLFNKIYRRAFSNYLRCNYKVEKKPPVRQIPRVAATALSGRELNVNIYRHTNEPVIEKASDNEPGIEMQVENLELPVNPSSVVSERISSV
Nature of the assay: Test Example 2: 5-HT2C receptor binding inhibition test ([3H]-Mesulergine; non-specific ligand Serotonin HCl). In outline:
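Ki values come from dose-response curves of [3H]-mesulergine displacement from human 5-HT2C membranes after 2 h at 37°C, scored by scintillation counting of filter-bound radioactivity. Serotonin HCl (500 µmol/L) set non-specific binding; Kd per membrane lot was taken from Scatchard plots.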

The mark [3] stands for this setting: [3H]-Mesulergine, non-specific binding with 500 µmol/L Serotonin HCl, 37°C, 2 hours.
[4] abbreviates: [3H]-Ketanserin, non-specific binding with 500 µmol/L Ketanserin, room temperature (25°C), 1.5 hours, read-out: h 5-HT2A Ki.
The mark [5] stands for this setting: human serotonin 5-HT2C receptor binding activity.

Like-named read-outs stand apart in the source and are kept apart here.

T1 sequence (P28223 whole entry): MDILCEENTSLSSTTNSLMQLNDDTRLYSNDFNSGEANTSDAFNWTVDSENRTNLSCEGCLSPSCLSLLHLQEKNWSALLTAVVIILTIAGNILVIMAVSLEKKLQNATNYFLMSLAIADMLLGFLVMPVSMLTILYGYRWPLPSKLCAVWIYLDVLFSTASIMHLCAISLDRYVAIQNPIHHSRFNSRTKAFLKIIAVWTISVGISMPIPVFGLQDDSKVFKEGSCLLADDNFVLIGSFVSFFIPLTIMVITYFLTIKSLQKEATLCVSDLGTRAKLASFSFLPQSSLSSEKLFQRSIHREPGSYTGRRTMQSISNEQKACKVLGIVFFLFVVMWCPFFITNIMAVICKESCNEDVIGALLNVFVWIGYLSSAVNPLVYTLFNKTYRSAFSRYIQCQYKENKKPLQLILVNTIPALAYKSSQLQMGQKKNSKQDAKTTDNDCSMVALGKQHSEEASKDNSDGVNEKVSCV

As a reminder, the Ki is a dissociation constant, usually derived from enzyme kinetics or from competition with a known ligand. As for `Cn1ncc(Br)c1-c1cc(Nc2ncc(C(F)(F)F)cc2F)ccc1OCCO` [Compound I-006], the Ki in assay [1] is 0.253 nM; in assay [2] (setting [3]), 0.223 nM.

Regarding `Cc1cnn(C)c1-c1cc(Nc2ncc(C(F)(F)F)cc2F)ccc1OCCO` [Compound I-008], the Ki in assay [1] (setting [4]) turned out to be 0.338 nM; in assay [2] (setting [3]), 1.05 nM.

Consider `Cn1ncc(F)c1-c1cc(Nc2ncc(C(F)(F)F)cc2F)cnc1OCCO` [Compound I-127], for which the inhibitory constant (Ki) in assay [1] (setting [4]) stood at 0.271 nM.

Turning to `COCc1nc(C)c(-c2cc(Nc3ncc(OC(F)(F)F)cc3Cl)ncc2OCCO)c(C)n1` [Compound I-200], the Ki in assay [1] (setting [4]) turned out to be 1.49 nM; in assay [2] (setting [5]), 1.9 nM.

Take `COCc1nc(C)c(-c2nc(Nc3ccc(C(F)(F)F)c(C)n3)c(F)cc2OCCO)c(C)n1` [Compound I-247]: the Ki in assay [1] (setting [4]) came to 1.74 nM; in assay [2] (setting [5]) it was 1.62 nM.

Take `Cc1nc(COC2COC2)nc(C)c1-c1cc(Nc2ncc(C(F)(F)F)cc2Cl)ncc1OCCO` [Compound I-376]: the Ki in assay [1] (setting [4]) was determined as 2.24 nM; in assay [2] (setting [5]), 2.74 nM.

Regarding `Cc1nc(CO[C@@H]2CCOC2)nc(C)c1-c1cc(Nc2ncc(C(F)(F)F)cc2Cl)ncc1OCCO` [Compound I-378], the inhibition constant (Ki) turned out to be 2.43 nM in assay [1] (setting [4]) and 1.51 nM in assay [2] (setting [5]).
